Patent US8697641B2, “4-amino-4-oxobutanoyl peptide cyclic analogues, inhibitors of viral replication” (Achillion Pharmaceuticals, Inc., priority 2008, dated 2014)

Test system: Hepatitis C replicon
Experiment: HCV replicon assay (NPT ELISA readout) in Huh-7 replicon-containing cells
Type: cell-based, Hepatitis C virus
Settings: Hepatitis C virus, 72 h; HCV replicon in Huh-7 cells, three days incubation
Procedure: Compounds claimed herein are tested for the ability to inhibit viral replication of the Hepatitis C replicon in cultured cells in which the HCV replicon construct has been incorporated. The HCV replicon system was described by Bartenschlager, et. al (Science, 285, pp. 110-113 (1999)). The replicon system is predictive of in vivo anti-HCV activity; compounds that are active in humans uniformly evidence activity in the replicon assay.
In this assay HCV replicon containing cells are treated with different concentrations of the test compound to ascertain the ability of the test compound to suppress replication of the HCV replicon. As a positive control, HCV replicon-containing cells are treated with different concentrations of interferon alpha, a known inhibitor of HCV replication. The replicon assay system includes Neomycin Phosphotransferase (NPT) as a component of the replicon itself in order to detect the transcription of replicon gene products in the host cell. Cells in which the HCV replicon is actively replicating have high levels of NPT; the level of NPT is proportional to HCV replication. […] The NPT level of each sample is measured using a captured ELISA.
A protocol for testing compounds for the ability to inhibit viral replication of the Hepatitis C replicon cultured cells in which the replicon construct has been incorporated, follows.
The HCV replicon contains, 5′-3′, the HCV-IRES, the neomycin phosphotransferase (neo) gene, the IRES of encephalomyocarditis virus, which directs translation of HCV sequences NS3 to NS5B, and the 3′-NTR. The sequence of the HCV replicon has been deposited in GenBank (Accession no. AJ242652).
The replicon is transfected into Huh-7 cells using standard methods such as electroporation.
The equipment and materials include, but are not limited to, Huh-7 HCV replicon-containing cells, maintenance media (DMEM (Dulbecco's modified Eagle media) supplemented with 10% FBS, L-glutamine, non-essential amino acids, penicillin (100 units/ml), streptomycin (100 micrograms/ml), and 500 micrograms/ml of Geneticin (G418), screening media (DMEM supplemented with 10% FBS, L-glutamine, non-essential amino acids, penicillin (100 units/ml) and streptomycin (100 micrograms/ml)), 96 well tissue culture plates (flat bottom), 96 well plates (U bottom for drug dilution), Interferon alpha for positive control, fixation reagent (such as methanol:acetone), primary antibody (rabbit anti-NPTII), secondary antibody: Eu-N1 l, and enhancement solution.
The cells are then seeded onto 96-well plates at a density of 6000-7500 cells/100 microliters/well (6-7.5×10^5 cells/10 ml/plate). The plates are then incubated at 37° C. in a 5% CO2 incubator.
HCV replicon-containing cells are rinsed with once PBS once; 2 mls of trypsin are then added. Cells are incubated at 37° C. in a 5% CO2 incubator for 3-5 minutes. 10 mls of complete medium is added to stop the reaction. Cells are blown gently, put into a 15 ml tube, and spun at 1200 rpm for four minutes. The trypsin/medium solution is removed and 5 mls of medium (500 ml DMEM (high glucose)) from BRL catalog #12430-054; 50 mls 10% FBS, 5% Geneticin G418 (50 mg/ml, BRL catalog #10131-035), 5 ml MEM non-essential amino acids (100×BRL #11140-050) and 5 ml pen-strep (BRL #15140-148) is added. The cells and media are mixed carefully
Cells are plated with screening medium (500 ml DMEM (BRL #21063-029), 50 ml FBS (BRL #10082-147) and 5 ml MEM non-essential amino acid (BRL #11140-050) at 6000-7500 fcells/100 μl/well of 96 well plate (6-7.5×10^5 cells/10 ml/plate). Plates are placed into 37° C. 5% CO2 incubator overnight.
The following morning, drugs (test compounds or interferon alpha) are diluted in 96 well U bottom plates with media or DMSO/media, depending on the final concentration chosen for screening. Generally for 6 concentrations of each test compounds ranging from 10 micromolar to 0.03 micromolar are applied. […]

COc1ccc2c(O[C@@H]3C[C@H]4C(=O)N[C@]5(C(=O)NS(=O)(=O)C6CC6)C[C@H]5/C=C\CCCCC[C@H](CC(=O)N5CC(C)CC(C)C5)C(=O)N4C3)cc(-c3ccccc3)nc2c1 (stereo partly drawn) [Compound 68, (2R,6R,13aS, 14aR,16aS,Z)-N-(cyclopropylsulfonyl)-6-(2-(3,5-dimethylpiperidin-1-yl)-2-oxoethyl)-2-(7-methoxy-2-phenylquinolin-4-yloxy)-5,16-dioxo-1,2,3,5,6,7,8,9,10,11, 13a,14,14a,15,16,16a-hexadecahydrocyclopropa [e]pyrrolo[1,2-a][1,4] diazacyclopentadecine-14a-carboxamide]
EC50: < 1 µM

COc1ccc2c(O[C@@H]3C[C@H]4C(=O)N[C@]5(C(=O)NS(=O)(=O)C6CC6)C[C@H]5/C=C\CCCCC[C@H](CC(=O)N5C(C)CCCC5C)C(=O)N4C3)cc(-c3ccccc3)nc2c1 (stereo partly drawn) [Compound 69, (2R,6R,13aS, 14aR,16aS,Z)-N-(cyclopropylsulfonyl)-6-(2-(2,6-dimethylpiperidin-1-yl)-2-oxoethyl)-2-(7-methoxy-2-phenylquinolin-4-yloxy)-5,16-dioxo-1,2,3,5,6,7,8,9,10,11, 13a,14,14a,15,16,16a-hexadecahydrocyclopropa [e]pyrrolo[1,2-a][1,4] diazacyclopentadecine-14a-carboxamide]
EC50: < 1 µM

COc1ccc2c(O[C@@H]3C[C@H]4C(=O)N[C@]5(C(=O)NS(=O)(=O)C6CC6)C[C@H]5/C=C\CCCCC[C@H](CC(=O)N5CCC(F)CC5)C(=O)N4C3)cc(-c3ccccc3)nc2c1 [Compound 70, (2R,6R,13aS, 14aR,16aS,Z)-N-(cyclopropylsulfonyl)-6-(2-(4-fluoropiperidin-1-yl)-2-oxoethyl)-2-(7-methoxy-2-phenylquinolin-4-yloxy)-5,16-dioxo-1,2,3,5,6,7,8,9,10,11, 13a,14,14a,15,16,16a-hexadecahydrocyclopropa [e]pyrrolo[1,2-a][1,4] diazacyclopentadecine-14a-carboxamide]
EC50: < 1 µM

COc1ccc2c(O[C@@H]3C[C@H]4C(=O)N[C@]5(C(=O)NS(=O)(=O)C6CC6)C[C@H]5/C=C\CCCCC[C@H](CC(=O)N5CCCC(C(F)(F)F)C5)C(=O)N4C3)cc(-c3ccccc3)nc2c1 (stereo partly drawn) [Compound 71, (2R,6R,13aS, 14aR,16aS,Z)-N-(cyclopropylsulfonyl)-2-(7-methoxy-2-phenylquinolin-4-yloxy)-5,16-dioxo-6-(2-oxo-2-(3-(trifluoromethyl)piperidin-1-yl)ethyl)-1,2,3,5,6,7,8,9,10,11, 13a,14,14a,15,16,16a-hexadecahydrocyclopropa [e]pyrrolo[1,2-a][1,4] diazacyclopentadecine-14a-carboxamide]
EC50: < 1 µM

COc1ccc2c(O[C@@H]3C[C@H]4C(=O)N[C@]5(C(=O)NS(=O)(=O)C6CC6)C[C@H]5/C=C\CCCCC[C@H](CC(=O)NC(C)(C)C)C(=O)N4C3)cc(-c3ccccc3)nc2c1 [Compound 72, (2R,6R,13aS,14aR, 16aS,Z)-6-(2-(tert-butylamino)-2-oxoethyl)-N-(cyclopropylsulfonyl)-2-(7-methoxy-2-phenylquinolin-4-yloxy)-5,16-dioxo-1,2,3,5,6,7,8,9,10,11, 13a,14,14a,15,16,16a-hexadecahydrocyclopropa [e]pyrrolo[1,2-a][1,4] diazacyclopentadecine-14a-carboxamide]
EC50: < 1 µM

COc1ccc2c(O[C@@H]3C[C@H]4C(=O)N[C@]5(C(=O)NS(=O)(=O)C6CC6)C[C@H]5/C=C\CCCCC[C@H](CC(=O)NC5CCCC5)C(=O)N4C3)cc(-c3ccccc3)nc2c1 [Compound 73, (2R,6R,13aS,14aR, 16aS,Z)-6-(2-(cyclopentylamino)-2-oxoethyl)-N-(cyclopropylsulfonyl)-2-(7-methoxy-2-phenylquinolin-4-yloxy)-5,16-dioxo-1,2,3,5,6,7,8,9,10,11, 13a,14,14a,15,16,16a-hexadecahydrocyclopropa [e]pyrrolo[1,2-a][1,4] diazacyclopentadecine-14a-carboxamide]
EC50: < 1 µM

COc1ccc2c(O[C@@H]3C[C@H]4C(=O)N[C@]5(C(=O)NS(=O)(=O)C6CC6)C[C@H]5/C=C\CCCCC[C@H](CC(=O)N5CCCCC5)C(=O)N4C3)cc(-c3ccccn3)nc2c1 [Compound 74, (2R,6R,13aS, 14aR,16aS,Z)-N-(cyclopropylsulfonyl)-2-(7-methoxy-2-(pyridin-2-yl)quinolin-4-yloxy)-5,16-dioxo-6-(2-oxo-2-(piperidin-1-yl)ethyl)-1,2,3,5,6,7,8,9,10,11, 13a,14,14a,15,16,16a-hexadecahydrocyclopropa [e]pyrrolo[1,2-a][1,4] diazacyclopentadecine-14a-carboxamide]
EC50: < 1 µM

COc1ccc2c(O[C@@H]3C[C@H]4C(=O)N[C@]5(C(=O)NS(=O)(=O)C6CC6)C[C@H]5/C=C\CCCCC[C@H](CC(=O)N5CCOC(C)C5)C(=O)N4C3)cc(-c3ccccc3)nc2c1 (stereo partly drawn) [Compound 75, (2R,6R,13aS, 14aR,16aS,Z)-N-(cyclopropylsulfonyl)-2-(7-methoxy-2-phenylquinolin-4-yloxy)-6-(2-(2-methylmorpholino)-2-oxoethyl)-5,16-dioxo-1,2,3,5,6,7,8,9,10,11, 13a,14,14a,15,16,16a-hexadecahydrocyclopropa [e]pyrrolo[1,2-a][1,4] diazacyclopentadecine-14a-carboxamide]
EC50: < 1 µM

COc1ccc2c(O[C@@H]3C[C@H]4C(=O)N[C@]5(C(=O)NS(=O)(=O)C6CC6)C[C@H]5/C=C\CCCCC[C@H](CC(=O)N5CC(C)OC(C)C5)C(=O)N4C3)cc(-c3ccccc3)nc2c1 (stereo partly drawn) [Compound 76, (2R,6R,13aS, 14aR,16aS,Z)-N-(cyclopropylsulfonyl)-6-(2-(2,6-dimethylmorpholino)-2-oxoethyl)-2-(7-methoxy-2-phenylquinolin-4-yloxy)-5,16-dioxo-1,2,3,5,6,7,8,9,10,11, 13a,14,14a,15,16,16a-hexadecahydrocyclopropa [e]pyrrolo[1,2-a][1,4] diazacyclopentadecine-14a-carboxamide]
EC50: < 1 µM

COc1ccc2c(O[C@@H]3C[C@H]4C(=O)N[C@]5(C(=O)NS(=O)(=O)C6CC6)C[C@H]5/C=C\CCCCC[C@H](CC(=O)N5CC6CC5CO6)C(=O)N4C3)cc(-c3ccccc3)nc2c1 (stereo partly drawn) [Compound 77, (2R,6R,13aS,14aR, 16aS,Z)-6-(2-(2-oxa-5-azabicyclo[2.2.1]heptan-5-yl)-2-oxoethyl)-N-(cyclopropylsulfonyl)-2-(7-methoxy-2-phenylquinolin-4-yloxy)-5,16-dioxo-1,2,3,5,6,7,8,9,10,11, 13a,14,14a,15,16,16a-hexadecahydrocyclopropa [e]pyrrolo[1,2-a][1,4] diazacyclopentadecine-14a-carboxamide]
EC50: < 1 µM

COc1ccc2c(O[C@@H]3C[C@H]4C(=O)N[C@]5(C(=O)NS(=O)(=O)C6CC6)C[C@H]5/C=C\CCCCC[C@H](CC(=O)N5CCCC(C)C5)C(=O)N4C3)cc(-c3ccccc3)nc2c1 (stereo partly drawn) [Compound 78, (2R,6R,13aS, 14aR,16aS,Z)-N-(cyclopropylsulfonyl)-2-(7-methoxy-2-phenylquinolin-4-yloxy)-6-(2-(3-methylpiperidin-1-yl)-2-oxoethyl)-5,16-dioxo-1,2,3,5,6,7,8,9,10,11, 13a,14,14a,15,16,16a-hexadecahydrocyclopropa [e]pyrrolo[1,2-a][1,4] diazacyclopentadecine-14a-carboxamide]
EC50: < 1 µM
